Test results published in patent US9377453B2, “Systems and methods for detection of cellular stress” (RAMOT AT TEL AVIV UNIVERSITY LTD., priority 2010, dated 2016).
Entries after “also recorded” stand apart in the source; their conditions may differ.

Tested on: CHO cells
Assay: Subcellular localization of Cy3-labeled tRNA in CHO cells treated with puromycin
Type: cell-based, Chinese hamster
Conditions: puromycin 1 mM, 0.5 h, 7 h post transfection; treated vs untreated CHO cells
Description: Chinese hamster ovary cells (CHO-Ki) were maintained in nutrient mixture F-12 (Ham) supplemented with 10% (v/v) fetal calf serum, 5 mM L-glutamine and antibiotics (all from Biological Industries).
Transfection—Cells were seeded in the day preceding the transfection (1.5×10^5 cells, 12 mm coverslips, in 24-well plates). Transfection was with 3 μg of yeast labeled-bulk tRNA (Interferin™, polyplus-transfection, according to manufacture's instructions). For DNA transfection (pSuper-retro-GFP), 9×10^4 cells/well were transfected with 1 μg DNA (TransIT-LT1 transfection reagent, according to manufacture's protocol). The following day, cells were re-transfected with labeled tRNA as described above.
Quantitative image analysis—For quantitative analysis of spatial distribution of the labeled tRNA and additional cellular markers, the entire cell volume was imaged by spinning disk confocal microscopy (0.15 μm between planes of the z-stack) with a 100× lens and 1×1 “on chip binning” yielding a pixel size of 100×100 nm; and deconvolved with the constrained iterative algorithm of Slidebook™ which employs an experimentally measured point spread function (PSF). […]

COc1ccc(C[C@H](N)C(=O)N[C@H]2[C@@H](O)[C@H](n3cnc4c(N(C)C)ncnc43)O[C@@H]2CO)cc1 [puromycin]
Nuclear localization of labeled tRNA (tRNA signal co-localizing with Hoechst signal): marked accumulation of tRNA in the nucleus; also recorded: increase in nuclear localization of labeled tRNA
